Counter-ions that a name gives are not always drawn.
Key:
[1] = test system: Abutilon theophrasti; assay: Herbicidal activity, soil, post-emergence; type: in vivo; conditions: read-out: Herbicidal activity, Abutilon theophrasti
Method: (§1) Herbicidal activity is determined using standard methods.
(§2) Substances 1 to 8 listed on page 5 are again investigated.

[2] = test system: Cyperus esculentus; assay: Herbicidal activity, soil, post-emergence; type: in vivo; conditions: read-out: Herbicidal activity, Cyperus esculentus
Method: as §1, §2

[3] = test system: Xanthium strumarium; assay: Herbicidal activity, soil, post-emergence; type: in vivo; conditions: read-out: Herbicidal activity, Xanthium strumarium
Method: as §1, §2

[4] = test system: Sinapis arvensis; assay: Herbicidal activity, soil, post-emergence; type: in vivo; conditions: Mutarda arvensis, read-out: Herbicidal activity, Sinapis arvensis
Method: as §1, §2

[5] = test system: Amaranthus retroflexus; assay: Herbicidal activity, soil, post-emergence; type: in vivo; conditions: read-out: Herbicidal activity, Amaranthus retroflexus
Method: as §1, §2

[6] = test system: Avena fatua; assay: Herbicidal activity, soil, post-emergence; type: in vivo; conditions: read-out: Herbicidal activity, Avena fatua
Method: as §1, §2

[7] = test system: Beta vulgaris; assay: Herbicidal activity, soil, post-emergence; type: in vivo; conditions: read-out: Herbicidal activity, Beta vulgaris
Method: as §1, §2

[8] = test system: Zea mays; assay: Herbicidal activity, soil, post-emergence; type: in vivo; conditions: read-out: Herbicidal activity, Zea mays
Method: as §1, §2

[9] = test system: Setaria viridis; assay: Herbicidal activity, soil, post-emergence; type: in vivo; conditions: read-out: Herbicidal activity, Setaria viridis
Method: as §1, §2

[10] = test system: Alopecurus myosuroides; assay: Herbicidal activity, soil, post-emergence; type: in vivo; conditions: read-out: Herbicidal activity, Alopecurus myosuroides
Method: as §1, §2

[11] = test system: Galium aperine; assay: Herbicidal activity, soil, post-emergence; type: in vivo; conditions: read-out: Herbicidal activity, Galium aperine
Method: as §1, §2

[12] = test system: Echinochloa; assay: Herbicidal activity, water, pre-emergence; type: in vivo; conditions: read-out: Herbicidal activity, Echinochloa
Method: as §1, §2

[13] = test system: Rice; assay: Herbicidal activity, water, pre-emergence; type: in vivo; conditions: Oryza sativa, read-out: Herbicidal activity, Rice
Method: as §1, §2

[14] = test system: Lepidium; assay: Herbicidal activity, water, pre-emergence; type: in vivo; conditions: read-out: Herbicidal activity, Lepidium
Method: as §1, §2

[15] = test system: Solanum; assay: Herbicidal activity, water, pre-emergence; type: in vivo; conditions: read-out: Herbicidal activity, Solanum
Method: as §1, §2

[16] = molecular target: T1, DOXP reductoisomerase from Helicobacter pylori (Helicobacter pylori, UniProt P56139); assay: DOXP reductoisomerase inhibition (NADPH oxidation at 365 nm); type: biochemical
T1 construct: made in house; host or cells: Helicobacter pylori (so in the source)
T1 sequence (P56139 1-368): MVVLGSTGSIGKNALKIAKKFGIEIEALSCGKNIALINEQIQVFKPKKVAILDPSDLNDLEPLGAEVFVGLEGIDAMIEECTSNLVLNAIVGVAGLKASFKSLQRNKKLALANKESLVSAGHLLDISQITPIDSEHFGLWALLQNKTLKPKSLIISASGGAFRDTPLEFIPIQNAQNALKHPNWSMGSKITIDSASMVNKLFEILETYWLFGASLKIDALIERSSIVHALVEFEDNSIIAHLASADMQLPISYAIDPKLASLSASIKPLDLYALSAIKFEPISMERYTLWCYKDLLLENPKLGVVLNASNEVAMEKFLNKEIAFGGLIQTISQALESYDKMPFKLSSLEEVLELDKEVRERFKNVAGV
Method: The DOXP reductoisomerase of Helicobacter pylori was expressed as a recombinant protein in Helicobacter pylori. The activity of DOXP reductoisomerase was determined in a batch containing 100 mM tris-HCl (pH=7.5), 1 mM MnCl2, 0.3 mM NADPH and 1 mM DOXP.
The oxidation of NADPH was here measured at 365 nm in a spectrophotometer. The inhibition studies were performed by measuring the activity of DOXP reductoisomerase in the presence of compounds 1 to 8 (see page 5) at various concentrations between 0. 1 and 100 μmol l^−1.

[17] = test system: Abutilon theophrasti; assay: Herbicidal activity, soil, pre-emergence; type: in vivo; conditions: read-out: Herbicidal activity, Abutilon theophrasti
Method: as §1, §2

[18] = test system: Cyperus esculentus; assay: Herbicidal activity, soil, pre-emergence; type: in vivo; conditions: read-out: Herbicidal activity, Cyperus esculentus
Method: as §1, §2

[19] = test system: Xanthium strumarium; assay: Herbicidal activity, soil, pre-emergence; type: in vivo; conditions: read-out: Herbicidal activity, Xanthium strumarium
Method: as §1, §2

[20] = test system: Sinapis arvensis; assay: Herbicidal activity, soil, pre-emergence; type: in vivo; conditions: Mutarda arvensis, read-out: Herbicidal activity, Sinapis arvensis
Method: as §1, §2

[21] = test system: Amaranthus retroflexus; assay: Herbicidal activity, soil, pre-emergence; type: in vivo; conditions: read-out: Herbicidal activity, Amaranthus retroflexus
Method: as §1, §2

[22] = test system: Avena fatua; assay: Herbicidal activity, soil, pre-emergence; type: in vivo; conditions: read-out: Herbicidal activity, Avena fatua
Method: as §1, §2

[23] = test system: Beta vulgaris; assay: Herbicidal activity, soil, pre-emergence; type: in vivo; conditions: read-out: Herbicidal activity, Beta vulgaris
Method: as §1, §2

[24] = test system: Zea mays; assay: Herbicidal activity, soil, pre-emergence; type: in vivo; conditions: read-out: Herbicidal activity, Zea mays
Method: as §1, §2

[25] = test system: Setaria viridis; assay: Herbicidal activity, soil, pre-emergence; type: in vivo; conditions: read-out: Herbicidal activity, Setaria viridis
Method: as §1, §2

[26] = test system: Alopecurus myosuroides; assay: Herbicidal activity, soil, pre-emergence; type: in vivo; conditions: read-out: Herbicidal activity, Alopecurus myosuroides
Method: as §1, §2

[27] = test system: Galium aperine; assay: Herbicidal activity, soil, pre-emergence; type: in vivo; conditions: read-out: Herbicidal activity, Galium aperine
Method: as §1, §2

Structure (SMILES)	pest or weed control at 2000 g/ha [1]	pest or weed control at 2000 g/ha [2]	pest or weed control at 2000 g/ha [3]	pest or weed control at 2000 g/ha [4]	pest or weed control at 2000 g/ha [5]	pest or weed control at 2000 g/ha [6]	plant injury at 2000 g/ha [7]	plant injury at 2000 g/ha [8]	pest or weed control at 2000 g/ha [9]	pest or weed control at 2000 g/ha [10]	pest or weed control at 2000 g/ha [11]	pest or weed control at 4000 g/ha [12]	plant injury at 4000 g/ha [13]	pest or weed control at 4000 g/ha [14]	pest or weed control at 4000 g/ha [15]	IC50 [16]	pest or weed control at 2000 g/ha [17]	pest or weed control at 2000 g/ha [18]	pest or weed control at 2000 g/ha [19]	pest or weed control at 2000 g/ha [20]	further results
CN(CN(O)C(=O)C1CCCCC1)CP(C)(=O)O [Compound 3, N-((N-Cyclohexanoyl-N-hydroxy)aminomethyl)-N-methyl(aminomethylphosphinic acid, sodium salt]	60%	0%	60%	80%	60%	70%	60%	70%	70%	60%	60%	50%	40%	50%	0%	170 nM	0%	0%	0%	30%	pest or weed control at 2000 g/ha [21]: 0%; pest or weed control at 2000 g/ha [22]: 0%; plant injury at 2000 g/ha [23]: 30%; plant injury at 2000 g/ha [24]: 0%; pest or weed control at 2000 g/ha [25]: 0%; pest or weed control at 2000 g/ha [26]: 30%; pest or weed control at 2000 g/ha [27]: 0%
CP(=O)(CNCN(O)C(=O)CCCN1CCOCC1)Oc1ccccc1 (stereo not drawn) [Compound 4, N-[(4-N-Morpholinobutanoyl-N-hydroxy)aminomethyl]aminomethyl(methyl)phosphinic acid phenyl ester]	50%	0%	90%	80%	40%	70%	50%	70%	90%	70%	70%	70%	30%	40%	30%	110 nM	0%	0%	0%	70%	pest or weed control at 2000 g/ha [21]: 20%; pest or weed control at 2000 g/ha [22]: 60%; plant injury at 2000 g/ha [23]: 60%; plant injury at 2000 g/ha [24]: 30%; pest or weed control at 2000 g/ha [25]: 0%; pest or weed control at 2000 g/ha [26]: 30%; pest or weed control at 2000 g/ha [27]: 0%
CP(=O)(O)C(O)CNCN(O)C(=O)c1ccco1 (stereo not drawn) [Compound 5, 2-(N-2-Furanoyl-N-hydroxy-aminomethyl)amino-1-hydroxyethylmethylphosphinic acid, sodium salt]	40%	0%	60%	90%	30%	80%	40%	80%	95%	70%	80%	80%	40%	40%	0%	130 nM	0%	0%	0%	50%	pest or weed control at 2000 g/ha [21]: 0%; pest or weed control at 2000 g/ha [22]: 0%; plant injury at 2000 g/ha [23]: 30%; plant injury at 2000 g/ha [24]: 0%; pest or weed control at 2000 g/ha [25]: 0%; pest or weed control at 2000 g/ha [26]: 50%; pest or weed control at 2000 g/ha [27]: 0%

Source: patent US20030144249A1, “Use of organophosphorous compounds for producing a medicament for treating infections” (priority 2000, published 2003)
